Assay results as given in PubChem BioAssay AID1919003 (Molecular Pharmacology Branch, DTP, NCI, 2023).

System: 786-0 complex spheroids with HUVEC/MSC, growth % test/control
Assay: Anticancer human tumor 786-0 cell line growth inhibition [AhR];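 note: compound exposure lasted seven days before the read-out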
Conditions: for IC50: curve of first compound; for viability, T/C: stronger effect = lower value
In short: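 Complex tumor spheroids co-cultured with HUVEC and human MSC stroma; AhR antagonists tested in combination with standard-of-care and investigational agents. Top concentration at or near clinical Cmax (else 10 microM), half-log dilutions; growth expressed as percent test/control.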

[1] = second compound 0.1 µM, first compound 0.0316 µM
[2] = second compound 0.1 µM, first compound 0.1 µM
[3] = second compound 0.1 µM, first compound 0.316 µM
[4] = second compound 0.1 µM, first compound 1 µM
[5] = second compound 0.1 µM, first compound 3.16 µM
[6] = second compound 0.1 µM, first compound 10 µM
[7] = second compound 0.316 µM, first compound 0.0316 µM
[8] = second compound 0.316 µM, first compound 0.1 µM
[9] = second compound 0.316 µM, first compound 0.316 µM
[10] = second compound 0.316 µM, first compound 1 µM
[11] = second compound 0.316 µM, first compound 3.16 µM
[12] = second compound 0.316 µM, first compound 10 µM
[13] = second compound 1 µM, first compound 0.0316 µM
[14] = second compound 1 µM, first compound 0.1 µM
[15] = second compound 1 µM, first compound 0.316 µM
[16] = second compound 1 µM, first compound 1 µM
[17] = second compound 1 µM, first compound 3.16 µM
[18] = second compound 1 µM, first compound 10 µM
[19] = second compound 3.16 µM, first compound 0.0316 µM
[20] = second compound 3.16 µM, first compound 0.1 µM
[21] = second compound 3.16 µM, first compound 0.316 µM
[22] = second compound 3.16 µM, first compound 1 µM
[23] = second compound 3.16 µM, first compound 3.16 µM
[24] = second compound 3.16 µM, first compound 10 µM
[25] = second compound 10 µM, first compound 0.0316 µM
[26] = second compound 10 µM, first compound 0.1 µM
[27] = second compound 10 µM, first compound 0.316 µM
[28] = second compound 10 µM, first compound 1 µM
[29] = second compound 10 µM, first compound 3.16 µM
[30] = second compound 10 µM, first compound 10 µM

SMILES | IC50 (second compound 0.1 µM) [µM] | IC50 (second compound 0.316 µM) [µM] | IC50 (second compound 1 µM) [µM] | IC50 (second compound 3.16 µM) [µM] | IC50 (second compound 10 µM) [µM] | viability, T/C [1] [%] | viability, T/C [2] [%] | viability, T/C [3] [%] | viability, T/C [4] [%] | viability, T/C [5] [%] | viability, T/C [6] [%] | viability, T/C [7] [%] | viability, T/C [8] [%] | viability, T/C [9] [%] | viability, T/C [10] [%] | viability, T/C [11] [%] | viability, T/C [12] [%] | viability, T/C [13] [%] | viability, T/C [14] [%] | viability, T/C [15] [%] | also measured
Nc1ccccc1NC(=O)c1ccc(CNC(=O)OCc2cccnc2)cc1 + Cc1cncc(-c2nc(NCCc3c[nH]c4ccccc34)c3ncn(C(C)C)c3n2)c1 | 7.2 | 7.82 | 6.75 | 4.61 | < 0.0316 | 119 | 114 | 125 | 115 | 106 | 27.8 | 118 | 114 | 128 | 126 | 115 | 32 | 106 | 113 | 121 | viability, T/C [16]: 108%; viability, T/C [17]: 97%; viability, T/C [18]: 25.6%; viability, T/C [19]: 68.1%; viability, T/C [20]: 71.4%; viability, T/C [21]: 65.4%; viability, T/C [22]: 60.5%; viability, T/C [23]: 69.2%; viability, T/C [24]: 15.2%; viability, T/C [25]: 8.31%; viability, T/C [26]: 9.06%; viability, T/C [27]: 3.52%; viability, T/C [28]: 0.75%; viability, T/C [29]: 0.39%; viability, T/C [30]: 0.77%
O=C(C=Cc1cccc(S(=O)(=O)Nc2ccccc2)c1)NO + Cc1cncc(-c2nc(NCCc3c[nH]c4ccccc34)c3ncn(C(C)C)c3n2)c1 | 7.06 | 7.68 | 6.53 | 1.6 | < 0.0316 | 120 | 113 | 112 | 119 | 103 | 26.5 | 113 | 118 | 113 | 113 | 112 | 31.4 | 113 | 111 | 106 | viability, T/C [16]: 106%; viability, T/C [17]: 96.7%; viability, T/C [18]: 22.4%; viability, T/C [19]: 69.2%; viability, T/C [20]: 68.2%; viability, T/C [21]: 59.4%; viability, T/C [22]: 53.7%; viability, T/C [23]: 45%; viability, T/C [24]: 11.8%; viability, T/C [25]: 13.8%; viability, T/C [26]: 8.02%; viability, T/C [27]: 5.17%; viability, T/C [28]: 0.6%; viability, T/C [29]: 2.92%; viability, T/C [30]: 1.45%
O=C(c1cc(Cc2n[nH]c(=O)c3ccccc23)ccc1F)N1CCN(C(=O)C2CC2)CC1 + Cc1cncc(-c2nc(NCCc3c[nH]c4ccccc34)c3ncn(C(C)C)c3n2)c1 | > 10 | > 10 | > 10 | > 10 | < 0.0316 | 125 | 119 | 133 | 125 | 120 | 131 | 115 | 126 | 123 | 126 | 128 | 120 | 112 | 123 | 112 | viability, T/C [16]: 112%; viability, T/C [17]: 121%; viability, T/C [18]: 108%; viability, T/C [19]: 80.2%; viability, T/C [20]: 82.3%; viability, T/C [21]: 82.8%; viability, T/C [22]: 85.1%; viability, T/C [23]: 79.3%; viability, T/C [24]: 77.9%; viability, T/C [25]: 10.6%; viability, T/C [26]: 18%; viability, T/C [27]: 9.64%; viability, T/C [28]: 16.9%; viability, T/C [29]: 15.3%; viability, T/C [30]: 13%
